In paper PMC10108392, “Rimonabant-Based Compounds Bearing Hydrophobic Amino Acid Derivatives as Cannabinoid Receptor Subtype 1 Ligands” (ACS Medicinal Chemistry Letters, 2023):

Target: T1, CB1R (Rattus norvegicus, UniProt P20272)
T1 construct: Crude membrane fractions were prepared from the brain; from tissue; host or cells: Wistar rat whole brain, crude membrane fraction
Test: Ligand stimulated [35S]GTPγS binding assay in rat brain membranes
Format: biochemical
Conditions: rat brain membranes
Method: Our novel chemical compounds were tested in vitro for their binding ability, efficacy, and potency on CB1R in rat brain membrane homogenate (Table 2 and SI, Figure S1). CB1Rs are the most abundant G-protein coupled receptors in the rodent and mammalian brain; therefore, this is an appropriate model to characterize our ligands in a more physiological system.
In Vitro Biological Assays
Preparation of Brain Membrane Homogenates
Wistar rats were locally bred and handled according to the EU Directive 2010/63/EU and to the Regulations on Animal Protection (40/2013. (II. 14.) Korm. r.) of Hungary. Crude membrane fractions were prepared from the brain. Brains were quickly removed from the euthanized rats and directly put in an ice-cold 50 mM Tris-HCl buffer (pH 7.4). The collected tissue was then homogenized in 30 volumes (v/w) of an ice-cold buffer with a Braun Teflon-glass homogenizer at the highest rpm. The homogenate was centrifuged at 20,000 × g for 25 min, and the resulting pellet was suspended in the same volume of a cold buffer followed by incubation at 37 °C for 30 min to remove endogenous ligands. Centrifugation was then repeated. The final pellets were taken up in five volumes of a 50 mM Tris-HCl (pH 7.4) buffer containing 0.32 M sucrose and stored at -80 °C. Prior to the experiment, aliquots were thawed and centrifuged at 20,000 ×g for 25 min and then they were resuspended in 50 mM Tris-HCl (pH 7.4), homogenized with a Douncer, followed by the determination of the protein concentration by the method of Bradford. The membrane suspensions were immediately used either in radioligand binding experiments or in [35S]GTPγS functional assays. […]
was terminated by diluting the samples with an ice-cold wash buffer (50 mM of Tris-HCl, 2.5 mM of EGTA, 5 mM of MgCl2, 0.5% fatty acid free BSA, pH 7.4), followed by repeated washing and rapid filtration through Whatman GF/B glass fiber filters (Whatman Ltd., Maidstone, UK) pre-soaked with 0.1% polyethyleneimine (30 min before the filtration). Filtration was performed with a 24-well Brandel Cell Harvester (Gaithersburg, MD, USA). Filters were air-dried and immersed into Ultima Gold MV scintillation cocktail, and then radioactivity was measured with a TRI-CARB 2100TR liquid scintillation analyzer (Packard, Perkin Elmer, Waltham, MA, USA).
Ligand Stimulated [35S]GTPγS Binding Assay
Rat brain membranes (30 µg protein/tube), prepared as described above, were incubated with 0.05 nM of […]
mM of NaCl, 3 mM of MgCl2 and 1 mM of EGTA in a 50 mM Tris-HCl buffer (pH 7.4) for 60 min at 30 °C. Basal [35S]GTPγS binding was measured in the absence of ligands and set as 100%. Nonspecific […]
binding was determined by the addition of 10 µM unlabelled GTPγS and subtracted from total binding.
Incubation, filtration and radioactivity measurements of the samples were carried out as described above. […]
All […]
data and curves were analyzed by GraphPad Prism 5.0 (San Diego, CA, USA).

T1 sequence (P20272 whole entry): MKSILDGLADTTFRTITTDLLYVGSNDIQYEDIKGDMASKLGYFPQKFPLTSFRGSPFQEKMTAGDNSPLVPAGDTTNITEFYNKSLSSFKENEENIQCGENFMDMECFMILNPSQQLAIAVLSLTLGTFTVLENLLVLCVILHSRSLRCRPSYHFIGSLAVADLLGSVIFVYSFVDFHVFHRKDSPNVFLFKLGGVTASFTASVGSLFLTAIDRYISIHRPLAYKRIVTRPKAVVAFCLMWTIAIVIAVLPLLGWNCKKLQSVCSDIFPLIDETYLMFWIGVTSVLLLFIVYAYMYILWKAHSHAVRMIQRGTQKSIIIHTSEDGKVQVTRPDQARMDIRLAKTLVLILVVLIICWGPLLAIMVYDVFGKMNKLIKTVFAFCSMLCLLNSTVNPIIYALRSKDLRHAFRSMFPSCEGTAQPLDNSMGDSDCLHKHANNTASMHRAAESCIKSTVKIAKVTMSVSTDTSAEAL

How did the “CB1R functional profile (agonist / antagonist / inverse agonist)” value (from [35S]GTPγS binding) turn out when CNC(=O)[C@@H](NC(=O)c1nn(-c2ccc(Cl)cc2)c(-n2cccc2)c1C)C(C)(C)C [Compound 34, RS2691-tLeu-NHCH3] was run?
Its value is “agonist”.

What about the EC50 (± SEM, read-out: [35S]GTPγS stimulation EC50) of the same molecule?
The EC50 was 46 ± 4.1 nM.
